Data published in US20230148070A1, “AMINO ACID DERIVATIVES AND THEIR USE AS FLAVOR MODIFIERS” (Firmenich SA, priority 2020, published 2023).

Experiments:
[1] = Sensory Testing 1: Savory Model (trained panel, umami and saltiness); type: in vivo; settings: 10 ppm; panel of 20-22 trained panelists; score on scale -5 (strong masking) to 5 (strong enhancing), 0 = reference water solution with 0.25% NaCl and 0.05% MSG
Procedure: Each of Compound 101, Compound 102, Compound 103, Compound 104, Compound 105, Compound 106, Compound 107, Compound 108 and Compound 109 was tested for taste properties, particularly umami and saltiness. A panel of 20-22 trained panelists evaluated the samples of each test compound at 10 ppm for umami taste properties and saltiness taste properties, and scored the solutions on a scale ranging from −5 to 5 (with −5 denoting a strong masking effect, and 5 denoting a strong enhancing effect, and 0 representing the intensity of a reference water solution containing 0.25% sodium chloride (NaCl) and 0.05% monosodium glutamate (MSG), respectively).

[2] = Sensory Testing 2: Chicken Soup (expert panel, salt, umami, meaty, kokumi); type: in vivo; settings: 10 ppm, panel of 8 experts, score on scale -5 to 5, 0 = reference water solution with 1.26% Chicken base, 0.7% NaCl, 0.04% MSG; for Mouth-coating / Round / Thick: kokumi
Procedure: Each of Compound 103, Compound 104 and Compound 109 was tested for flavor, taste and mouthfeel properties, particularly kokumi. A panel of 8 experts evaluated the samples of each test compound at 10 ppm for salt, umami, meaty, and kokumi (mouthcoating, round and thick) properties, and scored the solutions on a scale ranging from −5 to 5 (with −5 denoting a strong masking effect, and 5 denoting a strong enhancing effect, and 0 representing the intensity of a reference water solution containing 1.26% Chicken base, 0.7% NaCl, and 0.04% MSG, respectively).

| Compound | Saltiness [1] | Umami [1] | Meaty [2] | Saltiness [2] | Umami [2] | Mouth-coating [2] | Round [2] | Thick [2] |
| --- | --- | --- | --- | --- | --- | --- | --- | --- |
| CC(C)NC(=O)CCC(N)C(=O)O (stereo not drawn) [Compound 101] | 0.79 | 0.06 | – | – | – | – | – | – |
| NC(CCC(=O)NCCO)C(=O)O (stereo not drawn) [Compound 102] | 0.44 | 0.46 | – | – | – | – | – | – |
| NC(CCC(=O)NCCCC(=O)O)C(=O)O (stereo not drawn) [Compound 103] | 0.64 | 0.73 | 0.67 | 0.67 | 0.83 | 1.08 | 0.92 | 0.92 |
| C[C@H](CNC(=O)CC[C@H](N)C(=O)O)C(=O)O [Compound 104] | 0.96 | 0.32 | 0.42 | 0.75 | 0.75 | 0.75 | 0.50 | 0.58 |
| COc1ccc(CNC(=O)CCC(N)C(=O)O)cc1 (stereo not drawn) [Compound 105] | 0.38 | 0.76 | – | – | – | – | – | – |
| NC(CCC(=O)NCCc1ccc(O)cc1)C(=O)O (stereo not drawn) [Compound 106] | 0.33 | 0.51 | – | – | – | – | – | – |
| N=C(N)NCCCC(NC(=O)CCC(=O)O)C(=O)O (stereo not drawn) [Compound 107] | 0.61 | 0.66 | – | – | – | – | – | – |
| N=C(N)NCCCC(NC(=O)c1ccc(O)cc1)C(=O)O (stereo not drawn) [Compound 108] | 0.49 | 0.47 | – | – | – | – | – | – |
| C[C@@H](CNC(=O)CC[C@H](N)C(=O)O)C(=O)O [Compound 109] | 0.58 | 0.50 | 0 | 0.92 | 0.58 | 0.83 | 0.58 | 0.83 |
